From patent US20260138961A1, “MODULATORS OF MITOCHONDRIAL DNA REPLICATION” (Pretzel Therapeutics, Inc., priority 2022, published 2026)

What follows are molecules tested against T1, POLγA:A467T (Homo sapiens, UniProt P54098, A467T) (assay: DNA polymerization assay, POLγA:A467T mutant). Details: stimulation of polymerase activity, primed M13mp18 ssDNA, 37° C. 2 hours; read-out: A467T AC50.
T1 sequence (P54098 1-1239 A467T): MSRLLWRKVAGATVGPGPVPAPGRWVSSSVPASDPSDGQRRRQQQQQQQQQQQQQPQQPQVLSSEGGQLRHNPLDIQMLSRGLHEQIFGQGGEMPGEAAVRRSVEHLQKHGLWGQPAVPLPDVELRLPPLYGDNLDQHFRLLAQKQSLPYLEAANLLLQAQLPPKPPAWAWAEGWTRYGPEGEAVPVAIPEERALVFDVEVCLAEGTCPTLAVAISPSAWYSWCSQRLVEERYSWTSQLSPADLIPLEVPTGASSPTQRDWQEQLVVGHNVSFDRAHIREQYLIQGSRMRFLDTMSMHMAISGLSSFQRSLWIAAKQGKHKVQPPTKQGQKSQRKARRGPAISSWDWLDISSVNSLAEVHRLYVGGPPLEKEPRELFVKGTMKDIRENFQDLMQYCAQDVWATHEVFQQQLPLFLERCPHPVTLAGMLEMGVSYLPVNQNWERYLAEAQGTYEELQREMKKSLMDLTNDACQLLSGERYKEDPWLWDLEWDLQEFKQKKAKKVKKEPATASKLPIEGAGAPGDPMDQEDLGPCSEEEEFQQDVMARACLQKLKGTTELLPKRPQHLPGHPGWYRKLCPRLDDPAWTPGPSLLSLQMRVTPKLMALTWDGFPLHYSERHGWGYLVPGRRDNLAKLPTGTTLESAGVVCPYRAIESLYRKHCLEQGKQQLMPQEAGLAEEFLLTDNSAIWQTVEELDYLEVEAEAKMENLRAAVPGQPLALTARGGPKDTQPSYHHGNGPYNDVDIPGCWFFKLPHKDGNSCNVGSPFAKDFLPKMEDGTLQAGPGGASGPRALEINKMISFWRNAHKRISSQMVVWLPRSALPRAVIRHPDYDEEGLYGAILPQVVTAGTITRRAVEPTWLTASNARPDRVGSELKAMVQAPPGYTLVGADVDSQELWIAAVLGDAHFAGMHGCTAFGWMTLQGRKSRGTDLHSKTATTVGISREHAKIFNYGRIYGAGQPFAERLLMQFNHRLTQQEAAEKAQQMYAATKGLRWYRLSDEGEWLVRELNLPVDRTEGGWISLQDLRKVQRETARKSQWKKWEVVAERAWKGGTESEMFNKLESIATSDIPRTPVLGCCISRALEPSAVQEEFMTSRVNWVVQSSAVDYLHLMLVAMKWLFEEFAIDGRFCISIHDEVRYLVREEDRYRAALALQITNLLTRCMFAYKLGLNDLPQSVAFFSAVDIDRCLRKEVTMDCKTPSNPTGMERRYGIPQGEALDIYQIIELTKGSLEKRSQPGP
T1 sequence (Q9UHN1 1-485 partner): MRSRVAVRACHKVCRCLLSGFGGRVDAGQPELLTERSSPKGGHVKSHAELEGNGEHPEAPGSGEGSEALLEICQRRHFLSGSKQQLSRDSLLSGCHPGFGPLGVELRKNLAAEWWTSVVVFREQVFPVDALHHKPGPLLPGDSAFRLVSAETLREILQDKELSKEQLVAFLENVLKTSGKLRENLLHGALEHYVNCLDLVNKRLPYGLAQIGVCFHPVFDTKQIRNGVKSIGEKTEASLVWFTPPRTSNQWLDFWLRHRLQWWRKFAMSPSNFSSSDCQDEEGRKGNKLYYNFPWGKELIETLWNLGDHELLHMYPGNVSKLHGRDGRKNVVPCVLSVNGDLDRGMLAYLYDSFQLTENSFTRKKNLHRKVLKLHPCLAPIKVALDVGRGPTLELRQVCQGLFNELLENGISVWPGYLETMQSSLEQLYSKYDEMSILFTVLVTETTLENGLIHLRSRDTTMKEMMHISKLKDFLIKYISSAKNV
Format: biochemical
Procedure: DNA Polymerization Assay to Monitor Effects on Human Wildtype POLγ and Four Disease-Causing Mutant Variants of Human POLγ.
The ability of small molecules to stimulate the polymerase activity of POLγ was analyzed in a quantitative fluorescence SYBR Green I assay with fluorescence intensity (FI) readout.
In the presence of dNTPs, wild type human POLγ and mutant derivatives thereof were incubated with single-stranded, circular M13mp18 ssDNA hybridized to a short DNA oligonucleotide that functions as a primer for initiation of DNA synthesis. POLγ and mutant derivatives thereof will extend the primer and use the M13mp18 molecule as a template to synthesize long stretches of double-stranded DNA. SYBR Green I, which is a double-stranded DNA-binding dye, was used to quantify formation of double-stranded DNA in the reaction. When bound to double-stranded DNA, SYBR Green I fluorescence increases by up to 100-fold.
The assay was performed in the 384-well plate format. Upon addition of compounds, changes in double-stranded DNA synthesis activity can be monitored by following effects on fluorescent intensity.
The reactions also contained the accessory POLγB subunit, and the human mitochondrial single-stranded DNA binding protein (mtSSB).
The DNA template mixture used in the assay contained 0.5 nM primed M13 mp18 ssDNA, 400 nM mtSSB, 0.1 mM Tris-HCl (pH 8.0), 0.1 mM dNTP, 10 mM MgCl2, 0.1 mg/mL BSA, 1 mM TCEP solution, and 0.02% Triton X-100. The DNA template mixture for the wild type protein contained either 100 μM dNTP, 1 μM dNTP, or 0.1 μM dNTP, designated in Table 2 as 100 μM, 1 μM, and 0.1 μM, respectfully.
Microplates with compounds (0.1 μL in each well) to be tested in the assay were prepared from 10 mM compound stocks in 100% DMSO, and equal amounts of DMSO without any compound were added to positive and negative control wells.
The protein mixture was dispensed (5 μL into each well) into compound plates and incubated at 37° C. for 15 minutes. After incubation, 5 μL of the DNA template mixture was dispensed into each well. The plates were then incubated at 37° C. for 2 hours.
During incubation, a combined stop buffer and detection reagent solution was prepared. The buffer contained 25 mM EDTA (pH 8.0), 0.02% Triton X-100, and SYBR Green I [Invitrogen] diluted 10,000× (for fluorescent readout). EDTA will stop the enzymatic reaction by chelating magnesium ions.

Point of comparison: `Cc1cc(S(=O)(=O)Nc2cccc(-c3ncc(C#N)s3)c2)c(C)cc1Cl` [Example 96, 4-chloro-N-(3-(5-cyanothiazol-2-yl)phenyl)-2,5-dimethylbenzenesulfonamide], AC50 24 µM. Against it:
- Cc1cc(S(=O)(=O)Nc2cccc(-c3ncc(C(N)=O)s3)c2)c(C)cc1Cl [Example 92, 2-(3-((4-chloro-2,5-dimethylphenyl)sulfonamido)phenyl) thiazole-5-carboxamide] — higher, > 100 µM
- CNC(=O)c1cnc(-c2cccc(NS(=O)(=O)c3cc(C)c(Cl)cc3C)c2)s1 [Example 93, 2-(3-((4-chloro-2,5-dimethylphenyl)sulfonamido)phenyl)-N-methylthiazole-5-carboxamide] — higher, > 100 µM
- Cc1cc(S(=O)(=O)Nc2cccc(-c3ncc(C(=O)N(C)C)s3)c2)c(C)cc1Cl [Example 94, 2-(3-((4-chloro-2,5-dimethylphenyl)sulfonamido)phenyl)-N,N-dimethylthiazole-5-carboxamide] — higher, > 100 µM
- Cc1cc(S(=O)(=O)N[C@H]2CCCN(C(=O)[C@H]3CCCN3C)C2)c(C)cc1Cl [Example 95, 4-chloro-2,5-dimethyl-N-((S)-1-(methyl-D-prolyl)piperidin-3-yl)benzenesulfonamide] — higher, > 100 µM
- Cc1cc(S(=O)(=O)Nc2cccc(-c3ncc(-c4nnn[nH]4)s3)c2)c(C)cc1Cl [Example 97, N-(3-(5-(1H-tetrazol-5-yl)thiazol-2-yl)phenyl)-4-chloro-2,5-dimethylbenzenesulfonamide] — higher, > 100 µM
- Cc1cnc(-c2ccc(C)c(NS(=O)(=O)c3cc(C)c(Cl)cc3C)c2)s1 [Example 98, 4-chloro-2,5-dimethyl-N-(2-methyl-5-(5-methylthiazol-2-yl)phenyl)benzenesulfonamide] — higher, > 100 µM
- Cc1nc2c(NS(=O)(=O)c3cc(C)c(Cl)cc3C)cccc2s1 [Example 99, 4-chloro-2,5-dimethyl-N-(2-methylbenzo[d]thiazol-4-yl)benzenesulfonamide] — higher, > 100 µM
- Cc1cc(S(=O)(=O)N[C@@H]2CCCN(C(=O)[C@H]3CCCN3C)C2)c(C)cc1Cl [Example 100, 4-chloro-2,5-dimethyl-N-((R)-1-(methyl-D-prolyl)piperidin-3-yl)benzenesulfonamide] — higher, > 100 µM
- Cc1cc(S(=O)(=O)N[C@H]2CCCN(C(=O)[C@@H]3CCCN3C)C2)c(C)cc1Cl [Example 101, 4-chloro-2,5-dimethyl-N-((S)-1-(methyl-L-prolyl)piperidin-3-yl)benzenesulfonamide] — higher, > 100 µM
- Cc1cnc(-c2ccc(Cl)c(NS(=O)(=O)c3cc(C)c(Cl)cc3C)c2)s1 [Example 102, 4-chloro-N-(2-chloro-5-(5-methylthiazol-2-yl)phenyl)-2,5-dimethylbenzenesulfonamide] — higher, > 100 µM
- Cc1cnc(-c2cc(NS(=O)(=O)c3cc(C)c(Cl)cc3C)ccc2C)s1 [Example 103, 4-chloro-2,5-dimethyl-N-(4-methyl-3-(5-methylthiazol-2-yl)phenyl)benzenesulfonamide] — higher, > 100 µM
- Cc1cc(S(=O)(=O)N[C@@H]2CCCN(C(=O)[C@@H]3CCCN3C)C2)c(C)cc1Cl [Example 104, 4-chloro-2,5-dimethyl-N-((R)-1-(methyl-L-prolyl)piperidin-3-yl)benzenesulfonamide] — higher, > 100 µM
- Cc1cc(S(=O)(=O)Nc2cccc(C(=O)N3CCCC4(CC4)C3)c2)c(C)cc1Cl [Example 105, N-(3-(5-azaspiro[2.5]octane-5-carbonyl)phenyl)-4-chloro-2,5-dimethylbenzenesulfonamide] — higher, > 100 µM
- Cc1cc(S(=O)(=O)Nc2cccc(C(=O)N3CCCOC(C)(C)C3)c2)c(C)cc1Cl [Example 106, 4-chloro-N-(3-(2,2-dimethyl-1,4-oxazepane-4-carbonyl)phenyl)-2,5-dimethylbenzenesulfonamide] — higher, > 100 µM
- Cc1cc(S(=O)(=O)Nc2cccc(C(=O)N3CCc4cn[nH]c4C3)c2)c(C)cc1Cl [Example 107, 4-chloro-2,5-dimethyl-N-(3-(4,5,6,7-tetrahydro-1H-pyrazolo[3,4-c]pyridine-6-carbonyl)phenyl)benzenesulfonamide] — within 1.5-fold, 28 µM
- Cc1cc(S(=O)(=O)Nc2cccc(C(=O)N3C[C@H](C)[C@@H](N)C3)c2)c(C)cc1Cl [Example 108, N-(3-((3R,4S)-3-amino-4-methylpyrrolidine-1-carbonyl)phenyl)-4-chloro-2,5-dimethylbenzenesulfonamide] — higher, > 100 µM
- Cc1cc(S(=O)(=O)Nc2cccc(C(=O)N(C)c3ccccn3)c2)c(C)cc1Cl [Example 109, 3-((4-chloro-2,5-dimethylphenyl)sulfonamido)-N-methyl-N-(pyridin-2-yl)benzamide] — higher, > 100 µM
- Cc1cc(NS(=O)(=O)c2cc(C)c(Cl)cc2C)cc(-c2ncc(C)s2)c1 [Example 110, 4-chloro-2,5-dimethyl-N-(3-methyl-5-(5-methylthiazol-2-yl)phenyl)benzenesulfonamide] — higher, > 100 µM
- Cc1cnc(-c2cc(NS(=O)(=O)c3cc(C)c(Cl)cc3C)ccc2Cl)s1 [Example 111, 4-chloro-N-(4-chloro-3-(5-methylthiazol-2-yl)phenyl)-2,5-dimethylbenzenesulfonamide] — higher, > 100 µM
- Cc1cc(S(=O)(=O)Nc2cccc(C(=O)N(C(C)C)C3COC3)c2)c(C)cc1Cl [Example 112, 3-((4-chloro-2,5-dimethylphenyl)sulfonamido)-N-isopropyl-N-(oxetan-3-yl)benzamide] — higher, > 100 µM
- Cc1cc(S(=O)(=O)Nc2cccc(C(=O)N(CC(N)=O)C3CCCC3)c2)c(C)cc1Cl [Example 113, N-(2-amino-2-oxoethyl)-3-((4-chloro-2,5-dimethylphenyl)sulfonamido)-N-cyclopentylbenzamide] — higher, > 100 µM
- Cc1cc(S(=O)(=O)Nc2cccc(C(=O)N3CCc4ncnc(C)c4C3)c2)c(C)cc1Cl [Example 114, 4-chloro-2,5-dimethyl-N-(3-(4-methyl-5,6,7,8-tetrahydropyrido [4,3-d]pyrimidine-6-carbonyl)phenyl)benzenesulfonamide] — higher, > 100 µM
